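1) Cells in 96-well plates. 2) Compound, 48 h, 5 concentrations. 3) Linear interpolation between surrounding doses. 4) Unreached endpoint = highest concentration. At the GI50, growth is halved.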 Activity calls are given as the source filed them. No stated cut-off is given here; in the data, active = GI50 up to about 1.1 µM and inactive = higher.

The results in this text go back to ChEMBL document CHEMBL1201862, “PubChem BioAssay data set” (2004).

Some test systems named below: LXFL 529; M19-MEL; DLD-1; KM-20L2; RXF 631; HOP-18; DMS-114; DMS-273; XF498.
Assay in all cases: NCI tumour cell line growth inhibition, 48 h

Consider `COc1ccc2c(c1)C1(C=N2)CCN(C(C)=O)CC1`, for which the GI50 in the experiment with LXFL 529 is > 100 µM (inactive); in the experiment with M19-MEL it was > 100 µM (inactive); with DLD-1 it was > 100 µM (inactive); with KM-20L2, > 100 µM (inactive); in the experiment with RXF 631, > 100 µM (inactive); in the experiment with HOP-18 it was 41.5 µM (inactive). The GI50 in the experiment with DMS-114 is 60.5 µM (inactive); in the experiment on DMS-273, > 100 µM (inactive).
For the molecule `CC(C(=O)c1ccccc1)C1(O)C(=O)Nc2ccccc21` (centres undefined), the GI50 in the experiment with M19-MEL, in the experiment on DLD-1, in the experiment with KM-20L2, with RXF 631, in the experiment on HOP-18 and in the experiment with DMS-114 was > 100 µM (inactive) each time. The GI50 in the experiment on DMS-273 was > 100 µM (inactive).
As for `C=CCNC1=C(C(=O)OCC)C(=O)CO1`, the GI50 in the experiment on LXFL 529, with XF498, in the experiment with M19-MEL, in the experiment on DLD-1, in the experiment with KM-20L2 and in the experiment on RXF 631 was > 100 µM (inactive) in each case. Moreover, the GI50 with DMS-114 and with DMS-273 was > 100 µM (inactive) in each case.
Consider `OCCCCOC(c1ccccc1)(c1ccccc1)c1ccccc1`, for which the GI50 with LXFL 529, in the experiment with XF498, in the experiment with DLD-1, in the experiment on KM-20L2, in the experiment on DMS-114 and in the experiment on DMS-273 was > 100 µM (inactive) each time.
Regarding `CC1(C)CC(=O)C(CC2C(=O)c3ccccc3C2=O)C(=O)C1`, the GI50 with LXFL 529, in the experiment with M19-MEL, in the experiment with DLD-1, with KM-20L2, in the experiment on HOP-18 and in the experiment on DMS-114 was > 100 µM (inactive) in each case. The GI50 in the experiment on DMS-273 was > 100 µM (inactive).
As for `CC(=O)C(O)N1C(=O)C=CC1=O` (centres undefined), the GI50 in the experiment on LXFL 529 was 1.82 µM (inactive); with XF498 it was 17.3 µM (inactive); in the experiment on M19-MEL, 5.89 µM (inactive); in the experiment on DLD-1, 1.88 µM (inactive); in the experiment on RXF 631 it was 18.7 µM (inactive); in the experiment on HOP-18 it was 25.3 µM (inactive). Besides, the figures for the GI50 in the experiment on DMS-114 and with DMS-273 were 5.86 µM (inactive) and 14.7 µM (inactive), respectively.
Consider `CC(=O)Nc1ccc(C(=O)NN2C(=O)C(Cl)C2c2ccc(O)cc2)cc1` (centres undefined), for which the GI50 in the experiment with LXFL 529 was > 100 µM (inactive); with XF498, 52.8 µM (inactive); in the experiment with M19-MEL, > 100 µM (inactive); with DLD-1 it was > 100 µM (inactive); in the experiment on KM-20L2, > 100 µM (inactive); in the experiment on DMS-273, > 100 µM (inactive).
For the molecule `N#CC1=C(N)N2C(=O)/C(=C/c3ccccc3)SC2C(c2nc3ccccc3[nH]2)=C1c1ccccc1` (centres undefined), the GI50 in the experiment on LXFL 529 is 2.49 µM (inactive); in the experiment on XF498, 2.11 µM (inactive); with M19-MEL, 2.88 µM (inactive); in the experiment on DLD-1, 3.26 µM (inactive); in the experiment on KM-20L2, 2.75 µM (inactive); in the experiment on DMS-114 it was 2.16 µM (inactive). The GI50 in the experiment on DMS-273 was 2.07 µM (inactive).
With `CCOC(=O)CNC1C(NC(C)=O)C(OC)OC2COC(c3ccccc3)OC21` (centres undefined), the GI50 in the experiment on LXFL 529, in the experiment on M19-MEL, in the experiment on KM-20L2, in the experiment with RXF 631, with HOP-18 and in the experiment with DMS-114 was > 100 µM (inactive) in each case. For the same molecule, the GI50 in the experiment with DMS-273 is > 100 µM (inactive).
On to `COc1cc2c(c(OC)c1OC)-c1ccc(SC)c(=O)cc1C(CC(=O)Oc1cccc(C#N)c1)C2` (centres undefined), for which the GI50 with LXFL 529 was 0.516 µM (active); with XF498, 0.316 µM (active); in the experiment on M19-MEL it was 0.303 µM (active); in the experiment on DLD-1 it was 0.388 µM (active); with KM-20L2 it was 0.208 µM (active); with HOP-18, > 100 µM (inactive). The GI50 is 0.251 µM (active) in the experiment on DMS-114 and 0.2 µM (active) with DMS-273.
In the case of `C=C1C(=O)OC2/C=C(\CO)C3OC3C3OC3(C)CC(OC(=O)/C(=C/C)COC(C)=O)C12` (centres undefined), the GI50 in the experiment with LXFL 529 was 0.805 µM (active); with XF498, 1.8 µM (inactive); in the experiment on M19-MEL, 1.88 µM (inactive); with DLD-1, 1.11 µM (active); in the experiment with KM-20L2, 6.17 µM (inactive); with HOP-18 it was 9.79 µM (inactive). In addition, the GI50 with DMS-114 is 5.87 µM (inactive); with DMS-273, 3.12 µM (inactive).
For the molecule `CCCCN(CCCC)/C(=N\C#N)NCc1ccccc1`, the GI50 with LXFL 529 was 15.4 µM (inactive); in the experiment on M19-MEL it was 19 µM (inactive); with DLD-1, 23.8 µM (inactive); in the experiment with KM-20L2, 22 µM (inactive); with HOP-18 it was 46.6 µM (inactive); with DMS-273, 24.6 µM (inactive).
As for `C[n+]1c(Cl)cn2c3nc4ccccc4nc3c([O-])c(C#N)c21`, the GI50 in the experiment on LXFL 529 was > 100 µM (inactive); with XF498, > 100 µM (inactive); in the experiment with M19-MEL, < 0.01 µM (active); with DLD-1, < 0.01 µM (active); in the experiment on HOP-18, > 100 µM (inactive); in the experiment on DMS-114, > 100 µM (inactive). The GI50 in the experiment on DMS-273 was > 100 µM (inactive).
In the case of `O=C(O)CCc1coc2ccc(O)cc12`, the GI50 in the experiment on LXFL 529, in the experiment on XF498, in the experiment with M19-MEL, with DLD-1, in the experiment with KM-20L2 and in the experiment on HOP-18 was > 100 µM (inactive) each time. The GI50 with DMS-114 and with DMS-273 was > 100 µM (inactive) in each case.
As for `C=CCNC(=S)N1CC(C)C(=O)Nc2cc(Cl)ccc21` (centres undefined), the GI50 with LXFL 529 was > 100 µM (inactive); with M19-MEL, > 100 µM (inactive); in the experiment with DLD-1 it was > 100 µM (inactive); in the experiment with KM-20L2, > 100 µM (inactive); with HOP-18, 39.4 µM (inactive); with DMS-114, > 100 µM (inactive). In addition, the GI50 with DMS-273 is > 100 µM (inactive).
For the molecule `CCc1cc(Cc2ccc(C)c(NC(=O)C(=O)C3C(=O)NC(=O)NC3=O)c2CC)cc(C)c1NC(=O)C(=O)C1C(=O)NC(=O)NC1=O`, the GI50 in the experiment on LXFL 529, in the experiment on M19-MEL, with DLD-1, in the experiment with KM-20L2, in the experiment with RXF 631 and with DMS-114 was > 100 µM (inactive) throughout. The GI50 in the experiment on DMS-273 was > 100 µM (inactive).
For the molecule `C=CCC(C)(C(=O)NCCC)C(=O)c1ccccc1O` (centres undefined), the GI50 in the experiment with LXFL 529, with M19-MEL, in the experiment with DLD-1, with KM-20L2, in the experiment on HOP-18 and in the experiment on DMS-114 was > 100 µM (inactive) each time. The GI50 in the experiment with DMS-273 was > 100 µM (inactive).
With `COc1cc(/C=C2\[C@H]3c4c(c(OC)c(C)c(OC)c4OC)C[C@@H](C(=O)N2Cc2ccccc2)N3C(=O)OCC(C)C)c(OC)c(C)c1OC`, the GI50 with LXFL 529 was > 100 µM (inactive); in the experiment with XF498 it was 40.6 µM (inactive); in the experiment with M19-MEL, > 100 µM (inactive); in the experiment with DLD-1, > 100 µM (inactive); in the experiment with KM-20L2, > 69.8 µM (inactive); in the experiment on HOP-18, > 100 µM (inactive). The GI50 with DMS-273 is 47.1 µM (inactive).
Take `COc1ccc2nc(NC(=O)C(=O)C(C(=O)c3ccccc3-c3ccccc3)C3OC(=O)c4ccccc43)sc2c1` (centres undefined): the GI50 is 13.5 µM (inactive) in the experiment with LXFL 529; 21.5 µM (inactive) with XF498; 15.1 µM (inactive) with M19-MEL; 18.7 µM (inactive) with DLD-1; 25.1 µM (inactive) in the experiment on KM-20L2; 26.6 µM (inactive) in the experiment on RXF 631. For the same molecule, the GI50 in the experiment on DMS-114 is 16.6 µM (inactive).
Regarding `O=c1/c(=C/c2ccccc2F)sc2nc3ccccc3n12`, the GI50 was 88.3 µM (inactive) in the experiment on LXFL 529; > 100 µM (inactive) in the experiment on XF498; > 100 µM (inactive) with M19-MEL; > 100 µM (inactive) in the experiment on DLD-1; > 100 µM (inactive) in the experiment on KM-20L2; > 100 µM (inactive) with RXF 631. The GI50 was 67.3 µM (inactive) with DMS-114 and > 100 µM (inactive) in the experiment on DMS-273.
In the case of `Cc1c(/C=N/NC(=O)c2ccccc2)c(=O)n(-c2ccccc2)n1C`, the GI50 in the experiment with LXFL 529, in the experiment with XF498, in the experiment on M19-MEL, in the experiment on DLD-1, with KM-20L2 and in the experiment with HOP-18 was > 100 µM (inactive) in each case. For the same molecule, the GI50 with DMS-114 and with DMS-273 was > 100 µM (inactive) in each case.
Regarding `O=C1OC(O)C(Oc2c(Cl)cccc2Cl)=C1Cl` (centres undefined), the GI50 in the experiment with LXFL 529 was 16.6 µM (inactive); in the experiment with DLD-1, 15.7 µM (inactive); in the experiment with KM-20L2, 17.8 µM (inactive); with HOP-18, 19.1 µM (inactive); in the experiment on DMS-273, 15.8 µM (inactive).
Consider `Cc1ccc(C(=O)NCc2ccccc2)cc1/N=N/N(C)C`, for which the GI50 in the experiment with LXFL 529 is 47.5 µM (inactive); in the experiment with M19-MEL it was > 100 µM (inactive); with DLD-1, > 100 µM (inactive); in the experiment with KM-20L2 it was 65.9 µM (inactive); with DMS-273 it was > 100 µM (inactive).
Turning to `CC(=O)Nc1ccccc1-c1cnc2ccccc2n1`, the GI50 in the experiment with LXFL 529 is > 100 µM (inactive); in the experiment on XF498, 29.6 µM (inactive); in the experiment with M19-MEL, > 100 µM (inactive); in the experiment on DLD-1, > 100 µM (inactive); in the experiment on KM-20L2, > 100 µM (inactive); in the experiment on HOP-18, > 100 µM (inactive). In addition, the GI50 with DMS-114 is > 100 µM (inactive).
For `c1ccc2[nH]c(-c3nc4ccccc4o3)nc2c1`, the GI50 in the experiment with LXFL 529, in the experiment on XF498, in the experiment with M19-MEL, in the experiment with DLD-1, with KM-20L2 and with DMS-114 was > 100 µM (inactive) each time. The GI50 in the experiment with DMS-273 is > 100 µM (inactive).
With `CCOC(=O)/C(C#N)=C/c1[nH]c(C(=O)OCc2ccccc2)c(C)c1C`, the GI50 in the experiment on LXFL 529, in the experiment with M19-MEL, in the experiment on DLD-1, in the experiment on KM-20L2, in the experiment with RXF 631 and in the experiment on HOP-18 was > 100 µM (inactive) throughout. Moreover, the GI50 in the experiment on DMS-114 and in the experiment on DMS-273 was > 100 µM (inactive) each time.
